Reference: PubChem BioAssay AID256 (DTP/NCI, 2004)
Values joined by “and” are separate entries in the source; they are usually repeats but may differ in a detail not shown here. Identical values can stand only once. Toxic doses and inconclusive results are not listed.

Tested on: CD2F1 mice, L1210 leukemia ip, survival T/C
Experiment: NCI In Vivo Anticancer Drug Screen. Data for tumor model L1210 Leukemia (intraperitoneal) in CD2F1 (CDF1) mice
Settings: higher = longer survival
Procedure, shortened: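 Transplantable tumor in mice; compound-treated vs vehicle-treated groups. Read-out = treated/control ratio of the measured endpoint.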

[1] = endpoint: mean survival time, dose: 100.0 mg/kg/injection, schedule: Q01DX001 (ip), vehicle: saline
[2] = endpoint: mean survival time, dose: 200.0 mg/kg/injection, schedule: Q01DX001 (ip), vehicle: saline
[3] = endpoint: mean survival time, dose: 50.0 mg/kg/injection, schedule: Q01DX009 (ip), vehicle: saline with Tween-80
[4] = endpoint: mean survival time, dose: 100.0 mg/kg/injection, schedule: Q01DX001 (ip), vehicle: saline with Tween-80
[5] = endpoint: mean survival time, dose: 100.0 mg/kg/injection, schedule: Q01DX009 (ip), vehicle: saline with Tween-80
[6] = endpoint: mean survival time, dose: 200.0 mg/kg/injection, schedule: Q01DX009 (ip), vehicle: saline with Tween-80
[7] = endpoint: mean survival time, dose: 100.0 mg/kg/injection, schedule: Q04DX003 (ip), vehicle: saline
[8] = endpoint: mean survival time, dose: 12.5 mg/kg/injection, schedule: Q01DX009 (ip), vehicle: saline with Tween-80
[9] = endpoint: mean survival time, dose: 25.0 mg/kg/injection, schedule: Q01DX009 (ip), vehicle: saline with Tween-80
[10] = endpoint: mean survival time, dose: 100.0 mg/kg/injection, schedule: Q04DX003 (ip), vehicle: saline with Tween-80
[11] = endpoint: mean survival time, dose: 200.0 mg/kg/injection, schedule: Q04DX003 (ip), vehicle: saline with Tween-80

Structure (SMILES): COc1ccccc1C(=Nc1ccccc1)N(O)c1ccccc1
- T/C (endpoint: mean survival time, dose: 2.5 mg/kg/injection, schedule: Q01DX001 (ip), vehicle: saline with Tween-80): 114 % of control
- T/C (endpoint: mean survival time, dose: 2.5 mg/kg/injection, schedule: Q04DX003 (ip), vehicle: saline with Tween-80): 101 % of control
- T/C (endpoint: mean survival time, dose: 5.0 mg/kg/injection, schedule: Q01DX001 (ip), vehicle: saline with Tween-80): 112 % of control
- T/C (endpoint: mean survival time, dose: 5.0 mg/kg/injection, schedule: Q04DX003 (ip), vehicle: saline with Tween-80): 101 % of control
- T/C (endpoint: mean survival time, dose: 10.0 mg/kg/injection, schedule: Q01DX001 (ip), vehicle: saline with Tween-80): 114 % of control
- T/C (endpoint: mean survival time, dose: 10.0 mg/kg/injection, schedule: Q04DX003 (ip), vehicle: saline with Tween-80): 98 % of control

Structure (SMILES): c1ccc2c(c1)ccc1c[n+]3ccccc3cc12
- T/C (endpoint: mean survival time, dose: 1.25 mg/kg/injection, schedule: Q01DX009 (ip), vehicle: saline with Tween-80): 95 % of control
- T/C (endpoint: mean survival time, dose: 5.0 mg/kg/injection, schedule: Q04DX003 (ip), vehicle: saline sonified): 96 % of control

Structure (SMILES): CN(C(=O)Nc1ccc([N+](=O)[O-])cc1)c1ccccc1
- T/C [1]: 96 % of control
- T/C [2]: 98 % of control
- T/C (endpoint: mean survival time, dose: 400.0 mg/kg/injection, schedule: Q01DX001 (ip), vehicle: saline): 102 % of control

Structure (SMILES): O=C1OC(=O)C2C3C=CC(C4C=CC43)C12 (stereo not given)
- T/C [3]: 102 % of control
- T/C [4]: 101 % of control
- T/C [5]: 102 % of control
- T/C (endpoint: mean survival time, dose: 200.0 mg/kg/injection, schedule: Q01DX001 (ip), vehicle: saline with Tween-80): 98 % of control
- T/C [6]: 97 % of control

Structure (SMILES): CCN(CC)c1cccc(OC(=O)NC)c1
- T/C (endpoint: mean survival time, dose: 5.0 mg/kg/injection, schedule: Q01DX001 (ip), vehicle: saline): 102 % of control
- T/C (endpoint: mean survival time, dose: 10.0 mg/kg/injection, schedule: Q01DX001 (ip), vehicle: saline): 102 % of control
- T/C (endpoint: mean survival time, dose: 20.0 mg/kg/injection, schedule: Q01DX001 (ip), vehicle: saline): 102 % of control

Structure (SMILES): [Cl][Ga]([Cl])[Cl]
- T/C (endpoint: mean survival time, dose: 50.0 mg/kg/injection, schedule: Q04DX003 (ip), vehicle: saline): 96 % of control
- T/C [1]: 92 % of control
- T/C [7]: 108 % of control
- T/C [2]: 95 % of control

Structure (SMILES): C/C(=N/N(C)C)c1ccc2ccccc2c1
- T/C [8]: 97 % of control
- T/C (endpoint: mean survival time, dose: 25.0 mg/kg/injection, schedule: Q01DX001 (ip), vehicle: saline with Tween-80): 103 % of control
- T/C [9]: 95 % of control
- T/C (endpoint: mean survival time, dose: 50.0 mg/kg/injection, schedule: Q01DX001 (ip), vehicle: saline with Tween-80): 97 % of control
- T/C [4]: 103 % of control

Structure (SMILES): O=C1C(Br)=C(Br)C(=O)C1(Br)Br
- T/C (endpoint: mean survival time, dose: 6.25 mg/kg/injection, schedule: Q01DX009 (ip), vehicle: saline with Tween-80): 97 % of control
- T/C [8]: 103 % of control
- T/C [9]: 92 % of control

Structure (SMILES): CC(=O)OC(c1ccccc1)C(OC(C)=O)c1ccccc1 (stereo not given)
- T/C (endpoint: mean survival time, dose: 75.0 mg/kg/injection, schedule: Q01DX001 (ip), vehicle: other): 104 % of control
- T/C (endpoint: mean survival time, dose: 150.0 mg/kg/injection, schedule: Q01DX001 (ip), vehicle: other): 102 % of control
- T/C (endpoint: mean survival time, dose: 300.0 mg/kg/injection, schedule: Q01DX001 (ip), vehicle: other): 88 % of control

Structure (SMILES): O=C(OC1C=CC2CCC1C2)c1ccc([N+](=O)[O-])cc1 (stereo not given)
- T/C [3]: 98 % of control
- T/C [5]: 94 % of control
- T/C [10]: 87 % of control
- T/C [6]: 93 % of control
- T/C [11]: 87 % of control

Structure (SMILES): Nc1nc(SCc2ccccc2)c2[nH]cnc2n1
- T/C (endpoint: mean survival time, dose: 15.6 mg/kg/injection, schedule: Q01DX009 (ip), vehicle: saline): 118 % of control
- T/C (endpoint: mean survival time, dose: 31.3 mg/kg/injection, schedule: Q01DX009 (ip), vehicle: saline): 158 % of control and 183 % of control
- T/C (endpoint: mean survival time, dose: 37.5 mg/kg/injection, schedule: Q03DX003 (ip), vehicle: saline): 151 % of control
- T/C (endpoint: mean survival time, dose: 37.5 mg/kg/injection, schedule: Q04DX003 (ip), vehicle: saline): 164 % of control
- T/C (endpoint: mean survival time, dose: 62.5 mg/kg/injection, schedule: Q01DX009 (ip), vehicle: saline): 180 % of control and 181 % of control
- T/C (endpoint: mean survival time, dose: 75.0 mg/kg/injection, schedule: Q04DX003 (ip), vehicle: saline): 160 % of control
- T/C (endpoint: mean survival time, dose: 125.0 mg/kg/injection, schedule: Q01DX009 (ip), vehicle: saline): 161 % of control
- T/C (endpoint: mean survival time, dose: 150.0 mg/kg/injection, schedule: Q01DX007 (ip), vehicle: saline): 107 % of control
- T/C (endpoint: mean survival time, dose: 150.0 mg/kg/injection, schedule: Q01DX009 (ip), vehicle: saline): 100 % of control
- T/C (endpoint: mean survival time, dose: 150.0 mg/kg/injection, schedule: Q03DX003 (ip), vehicle: saline): 150 % of control
- T/C (endpoint: median survival time, dose: 31.3 mg/kg/injection, schedule: Q01DX009 (ip), vehicle: saline): 150 % of control and 162 % of control
- T/C (endpoint: median survival time, dose: 62.5 mg/kg/injection, schedule: Q01DX009 (ip), vehicle: saline): 155 % of control and 156 % of control
- T/C (endpoint: median survival time, dose: 125.0 mg/kg/injection, schedule: Q01DX009 (ip), vehicle: saline): 88 % of control and 112 % of control
- T/C (endpoint: median survival time, dose: 250.0 mg/kg/injection, schedule: Q01DX009 (ip), vehicle: saline): 87 % of control

Structure (SMILES): CC(=O)OCC1OC(n2ncc3c(NCc4ccco4)ncnc32)C(O)C1O (stereo not given)
- T/C (endpoint: mean survival time, dose: 25.0 mg/kg/injection, schedule: Q01DX009 (ip), vehicle: water): 109 % of control
- T/C (endpoint: mean survival time, dose: 50.0 mg/kg/injection, schedule: Q01DX009 (ip), vehicle: water): 97 % of control
- T/C (endpoint: mean survival time, dose: 100.0 mg/kg/injection, schedule: Q01DX009 (ip), vehicle: water): 111 % of control
- T/C (endpoint: mean survival time, dose: 200.0 mg/kg/injection, schedule: Q01DX009 (ip), vehicle: water): 102 % of control
- T/C (endpoint: mean survival time, dose: 400.0 mg/kg/injection, schedule: Q01DX009 (ip), vehicle: water): 86 % of control

Structure (SMILES): COc1ccc(CCN)cc1OC
- T/C (endpoint: mean survival time, dose: 50.0 mg/kg/injection, schedule: Q01DX009 (ip), vehicle: saline): 94 % of control
- T/C (endpoint: mean survival time, dose: 100.0 mg/kg/injection, schedule: Q01DX009 (ip), vehicle: saline): 94 % of control
- T/C [10]: 97 % of control
- T/C (endpoint: mean survival time, dose: 200.0 mg/kg/injection, schedule: Q01DX009 (ip), vehicle: saline): 97 % of control
- T/C [11]: 93 % of control

Structure (SMILES): c1ccc(C2CO2)cc1 (stereo not given)
- T/C (endpoint: mean survival time, dose: 150.0 mg/kg/injection, schedule: Q04DX003 (ip), vehicle: Klucel (hydroxypropylcellulose) (HPC)): 102 % of control
- T/C (endpoint: mean survival time, dose: 225.0 mg/kg/injection, schedule: Q04DX003 (ip), vehicle: Klucel (hydroxypropylcellulose) (HPC)): 102 % of control

Structure (SMILES): CN(C)CCCOc1nc2c(c(=O)n(C)c(=O)n2C)n1C (tested in a mixture with another compound)
- T/C (endpoint: median survival time, dose: 6.25 mg/kg/injection, schedule: Q01DX009 (ip), vehicle: Klucel (hydroxypropylcellulose) (HPC)): 111 % of control
- T/C (endpoint: median survival time, dose: 12.5 mg/kg/injection, schedule: Q01DX009 (ip), vehicle: Klucel (hydroxypropylcellulose) (HPC)): 116 % of control and 117 % of control
- T/C (endpoint: median survival time, dose: 50.0 mg/kg/injection, schedule: Q01DX009 (ip), vehicle: Klucel (hydroxypropylcellulose) (HPC)): 154 % of control and 176 % of control
- T/C (endpoint: median survival time, dose: 100.0 mg/kg/injection, schedule: Q01DX009 (ip), vehicle: Klucel (hydroxypropylcellulose) (HPC)): 155 % of control and 185 % of control
- T/C (endpoint: median survival time, dose: 200.0 mg/kg/injection, schedule: Q01DX009 (ip), vehicle: Klucel (hydroxypropylcellulose) (HPC)): 172 % of control

Structure (SMILES): CN=C(N)N/N=C(\C)c1ccc2c(c1)Cc1cc(/C(C)=N/NC(N)=NC)ccc1-2
- T/C (endpoint: median survival time, dose: 0.37 mg/kg/injection, schedule: Q01DX009 (ip), vehicle: saline with Tween-80): 118 % of control and 124 % of control
- T/C (endpoint: median survival time, dose: 3.0 mg/kg/injection, schedule: Q01DX009 (ip), vehicle: saline with Tween-80): 121 % of control
- T/C (endpoint: median survival time, dose: 6.0 mg/kg/injection, schedule: Q01DX009 (ip), vehicle: saline with Tween-80): 92 % of control and 95 % of control

Structure (SMILES): CN(C)N=Nc1ccc(Cl)cc1
- T/C (endpoint: mean survival time, dose: 79.0 mg/kg/injection, schedule: Q01DX009 (ip), vehicle: Klucel (hydroxypropylcellulose) (HPC)): 111 % of control
- T/C (endpoint: mean survival time, dose: 118.0 mg/kg/injection, schedule: Q01DX009 (ip), vehicle: Klucel (hydroxypropylcellulose) (HPC)): 119 % of control

Structure (SMILES): COc1ccc2c(c1)N(CC(C)C[N+](C)(C)CCCCCCCCCCCCCCCC[N+](C)(C)CC(C)CN1c3ccccc3Sc3ccc(OC)cc31)c1ccccc1S2 (stereo not given)
- T/C [7]: 91 % of control
- T/C (endpoint: mean survival time, dose: 200.0 mg/kg/injection, schedule: Q04DX003 (ip), vehicle: saline): 91 % of control

Structure (SMILES): Cc1c(N=O)c(C)[n+]([O-])n1O
- T/C (endpoint: mean survival time, dose: 50.0 mg/kg/injection, schedule: Q01DX009 (ip), vehicle: Klucel (hydroxypropylcellulose) (HPC)): 89 % of control
- T/C (endpoint: mean survival time, dose: 100.0 mg/kg/injection, schedule: Q01DX009 (ip), vehicle: Klucel (hydroxypropylcellulose) (HPC)): 97 % of control
- T/C (endpoint: mean survival time, dose: 200.0 mg/kg/injection, schedule: Q01DX009 (ip), vehicle: Klucel (hydroxypropylcellulose) (HPC)): 97 % of control
